Experimental data reported in patent US20030110574A1, “Use of optical brighteners from the class of the stilbene compounds as antimicrobially active substances” (priority 2000, published 2003).

System: bacterial mixture of Staphylococcus aureus ATCC 9144 and Escherichia coli NCTC 8196
Assay: Antimicrobial activity in agar plates after irradiation with xenon light, viable bacteria counted
Assay type: cell-based
Experimental: Determination of Antimicrobial Activity of Tinopal CBS-X after Irradiation with Light
The optical brightener of the formula [drawing 28]
is incorporated in agar plates and subsequently inoculated with bacteria and irradiated with xenon light for 10 minutes or 30 minutes.
The test is used to detect antimicrobial activity by comparison with unirradiated samples.
To this end, a 1.5% stock solution in DMSO is prepared.
0.5 and 0.1 ml of this solution are added to 15 ml of liquid agar (final concentration: 500 and 100 ppm).
After solidification and drying, a bacterial mixture of Staphylococcus aureus and Escherichia coli is plated out on the agar (final concentration cfu/ml:˜10^5). The plates are fixed on cotton by means of double sided Scotch tape and are irradiated with a xenon lamp for 10 or 30 minutes.
Unirradiated agar plattes including 100 and 500 ppm of Tinopal CBS-X and agar plates without Tinopal are incubated as controls.
All plates were incubated at 37° C. for about 48 hours. After incubation, viable bacteria are counted (see Table 1).
Staphylococcus aureus ATCC 9144
Escherichia coli NCTC 8196
Cultures 18 to 24 hours in casein soymeal peptone broth diluted 1:5000 (Staph.) and 1:10,000 (E. coli) and mixed together
The table reports the number of colony-forming units of bacteria after 10 minutes' and 30 minutes' irradiation.

## O=S(=O)([O-])c1ccccc1C=Cc1ccc(-c2ccc(C=Cc3ccccc3S(=O)(=O)[O-])cc2)cc1.[Na+].[Na+] [Tinopal CBS-X]
100 ppm in agar, control not irradiated with xenon light (t: 0′)
  number of colony-forming units of bacteria: 4.4 × 10^4 (t: 0′) colony-forming units
100 ppm in agar, irradiated with xenon light, 10 minutes, incubated 37° C. about 48 hours
  number of colony-forming units of bacteria: 2.3 × 10^4 colony-forming units
100 ppm in agar, irradiated with xenon light, 30 minutes, incubated 37° C. about 48 hours
  number of colony-forming units of bacteria: 5.1 × 10^2 colony-forming units
100 ppm or 500 ppm in agar nutrient medium, 30 minutes' irradiation with a xenon lamp
  reduction of the microorganisms compared with unirradiated plates and plates without Tinopal CBS-X: effective to substantially reduce the microorganisms
500 ppm in agar, control not irradiated with xenon light (t: 0′)
  number of colony-forming units of bacteria: 4.3 × 10^4 (t: 0′) colony-forming units
500 ppm in agar, irradiated with xenon light, 10 minutes, incubated 37° C. about 48 hours
  number of colony-forming units of bacteria: 3.0 × 10^4 colony-forming units
500 ppm in agar, irradiated with xenon light, 30 minutes, incubated 37° C. about 48 hours
  number of colony-forming units of bacteria: 1.5 × 10^2 colony-forming units
